Laboratory results taken from ChEMBL document CHEMBL4400520, “Benzofuran-isatin-imine hybrids tethered via different length alkyl linkers: Design, synthesis and in vitro evaluation of anti-tubercular and anti-bacterial activities as well as cytotoxicity” (Eur J Med Chem, 2019).
≈ marks a conversion by molar mass, not a printed value.

Tests used:
Type in all cases: functional
[1] = system: Mycobacterium tuberculosis; test: Antitubercular activity against multidrug resistant Mycobacterium tuberculosis isolate 1
[2] = system: Mycobacterium tuberculosis; test: Antitubercular activity against multidrug resistant Mycobacterium tuberculosis isolate 2
[3] = system: Mycobacterium tuberculosis; test: Potency index, ratio of rifampin MIC to compound MIC for multidrug resistant Mycobacterium tuberculosis isolate 2
[4] = system: Mycobacterium tuberculosis; test: Potency index, ratio of isoniazid MIC to compound MIC for multidrug resistant Mycobacterium tuberculosis isolate 2
[5] = system: Mycobacterium tuberculosis; test: Potency index, ratio of rifampin MIC to compound MIC for multidrug resistant Mycobacterium tuberculosis isolate 1
[6] = system: Mycobacterium tuberculosis; test: Potency index, ratio of ciprofloxacin MIC to compound MIC for multidrug resistant Mycobacterium tuberculosis isolate 2
[7] = system: Mycobacterium tuberculosis; test: Potency index, ratio of ciprofloxacin MIC to compound MIC for multidrug resistant Mycobacterium tuberculosis isolate 1
[8] = system: Mycobacterium tuberculosis; test: Potency index, ratio of isoniazid MIC to compound MIC for multidrug resistant Mycobacterium tuberculosis isolate 1

CCOC(=O)c1c(-c2ccc(OC)cc2)oc2ccc(OCCCCCCN3C(=O)/C(=N\NC(N)=S)c4cc(F)ccc43)cc12 showed an MIC [1] of 0.95 µg/mL (≈ 1.5 µM) and an MIC [2] of 0.9 µg/mL (≈ 1.42 µM).

Work on CCOC(=O)c1c(-c2ccc(OC)cc2)oc2ccc(OCCCN3C(=O)/C(=N\OC)c4cc(OC)ccc43)cc12 yielded an MIC [1] of 0.49 µg/mL (≈ 0.877 µM) and an MIC [2] of 0.29 µg/mL (≈ 0.519 µM).

CO[C@H]1/C=C/O[C@@]2(C)Oc3c(C)c(O)c4c(O)c(c(/C=N/N5CCN(C)CC5)c(O)c4c3C2=O)NC(=O)/C(C)=C\C=C\[C@H](C)[C@H](O)[C@@H](C)[C@@H](O)[C@@H](C)[C@H](OC(C)=O)[C@@H]1C [RIFAMPIN] gave an MIC [1] of over 40 µg/mL and an MIC [2] of over 40 µg/mL.

In the case of CCOC(=O)c1c(-c2ccc(OC)cc2)oc2ccc(OCCCN3C(=O)/C(=N\OC)c4ccccc43)cc12, the MIC [1] is reported as 0.16 µg/mL (≈ 0.303 µM) and the MIC [2] is reported as 0.21 µg/mL (≈ 0.397 µM).

In the case of CNC(=O)c1c(-c2ccc(O)cc2)oc2ccc(O)c(CN3CCCCC3)c12, the MIC [1] is reported as under 0.016 µg/mL and the MIC [2] is reported as under 0.016 µg/mL.

With CCO/N=C1\C(=O)N(CCCOc2ccc3oc(-c4ccc(OC)cc4)c(C(=O)OCC)c3c2)c2ccccc21 the MIC [1] was 4.25 µg/mL (≈ 7.83 µM) and the MIC [2] was 5.88 µg/mL (≈ 10.8 µM).

CCOC(=O)c1c(-c2ccc(OC)cc2)oc2ccc(OCCCCCN3C(=O)/C(=N\OC)c4cc(F)ccc43)cc12 showed an MIC [1] of 3.46 µg/mL (≈ 6.02 µM) and an MIC [2] of 4.24 µg/mL (≈ 7.38 µM).

For CCO/N=C1\C(=O)N(CCCCCCOc2ccc3oc(-c4ccc(OC)cc4)c(C(=O)OCC)c3c2)c2ccccc21, the MIC [1] was 2.69 µg/mL (≈ 4.6 µM) and the MIC [2] was 3.86 µg/mL (≈ 6.6 µM).

With CCOC(=O)c1c(-c2ccc(OC)cc2)oc2ccc(OCCCCN3C(=O)/C(=N\OC)c4ccccc43)cc12 the Ratio [3] was “>=48”, the Ratio [4] was “>=48” and the MIC [1] was 0.062 µg/mL (≈ 0.114 µM). The Ratio [5] was “>=48”, the Ratio [6] was “>=48” and the Ratio [7] was “>=48”. For the same compound, the Ratio [8] was “>=48” and the MIC [2] was 0.16 µg/mL (≈ 0.295 µM).

CCOC(=O)c1c(-c2ccc(F)cc2)oc2ccc(OCCCCCCN3C(=O)C(=O)c4cc(F)ccc43)cc12 gave an MIC [1] of 5.89 µg/mL (≈ 10.8 µM) and an MIC [2] of 2.98 µg/mL (≈ 5.44 µM).

For O=C(O)c1cn(C2CC2)c2cc(N3CCNCC3)c(F)cc2c1=O [CIPROFLOXACIN], the MIC [1] was 0.39 µg/mL (≈ 1.18 µM) and the MIC [2] was 0.27 µg/mL (≈ 0.815 µM).

CCOC(=O)c1c(-c2ccc(OC)cc2)oc2ccc(OCCCCCCN3C(=O)/C(=N\OC)c4ccccc43)cc12 was tested, and the MIC [1] was 1.73 µg/mL (≈ 3.03 µM) and the MIC [2] was 1.87 µg/mL (≈ 3.28 µM).

CCO/N=C1\C(=O)N(CCCOc2ccc3oc(-c4ccc(OC)cc4)c(C(=O)OCC)c3c2)c2ccc(OC)cc21 showed an MIC [1] of 2.24 µg/mL (≈ 3.91 µM) and an MIC [2] of 2.12 µg/mL (≈ 3.7 µM).

CCOC(=O)c1c(-c2ccccc2)oc2ccc(OCCCN3C(=O)/C(=N\OC)c4ccccc43)cc12 gave an MIC [1] of 0.94 µg/mL (≈ 1.89 µM) and an MIC [2] of 0.91 µg/mL (≈ 1.83 µM).

With NNC(=O)c1ccncc1 [ISONIAZID] the MIC [1] was over 40 µg/mL and the MIC [2] was over 40 µg/mL.

CCOC(=O)c1c(-c2ccccc2)oc2ccc(OCCCN3C(=O)/C(=N\OC)c4cc(OC)ccc43)cc12 showed an MIC [1] of 0.21 µg/mL (≈ 0.397 µM) and an MIC [2] of 0.27 µg/mL (≈ 0.511 µM).

CCOC(=O)c1c(-c2ccc(OC)cc2)oc2ccc(OCCCCCCN3C(=O)C(=O)c4cc(F)ccc43)cc12 was tested, and the MIC [1] was 14.2 µg/mL (≈ 25.3 µM) and the MIC [2] was 12.9 µg/mL (≈ 23.1 µM).

CCO/N=C1\C(=O)N(CCCCOc2ccc3oc(-c4ccc(OC)cc4)c(C(=O)OCC)c3c2)c2ccccc21 showed an MIC [1] of 3.23 µg/mL (≈ 5.8 µM) and an MIC [2] of 3.42 µg/mL (≈ 6.14 µM).

In the case of CCOC(=O)c1c(-c2ccc(OC)cc2)oc2ccc(OCCCCCCN3C(=O)/C(=N\NC(N)=S)c4ccccc43)cc12, the MIC [1] is reported as 0.47 µg/mL (≈ 0.765 µM) and the MIC [2] is reported as 0.48 µg/mL (≈ 0.781 µM).

CCOC(=O)c1c(-c2ccc(OC)cc2)oc2ccc(OCCCCCCN3C(=O)/C(=N\OC)c4cc(F)ccc43)cc12 was tested, and the MIC [1] was 2.85 µg/mL (≈ 4.84 µM) and the MIC [2] was 3.56 µg/mL (≈ 6.05 µM).
